This is an account of results in ChEMBL document CHEMBL6096649, “Enantiomeric C-6 fluorinated swainsonine derivatives as highly selective and potent inhibitors of α-mannosidase and α-l-rhamnosidase: Design, synthesis and structure-activity relationship study” (Eur J Med Chem, 2025).

For assay [1], the species on record is Homo sapiens. Kind of assay: Inhibition of human liver Alpha-mannosidase relative to control.
The species named for assay [2] is Bos taurus. Kind of assay: Inhibition of bovine liver beta-galactosidase using p-nitrophenyl glycoside as substrate assessed as release of p-nitrophenol at 1000 uM by spectrometric analysis relative to control.
For assay [3], the species on record is Bos taurus. Kind of assay: Inhibition of bovine liver beta-glucosidase using p-nitrophenyl glycoside as substrate assessed as release of p-nitrophenol at 1000 uM by spectrometric analysis relative to control.
The test system of another assay is Aspergillus niger. Kind of assay: Inhibition of Aspergillus niger amyloglucosidase using p-nitrophenyl glycoside as substrate assessed as release of p-nitrophenol at 1000 uM by spectrometric analysis relative to control.
Assay [4] is filed under the species Homo sapiens. Kind of assay: Inhibition of human lysosome beta-glucosidase using p-nitrophenyl glycoside as substrate assessed as release of p-nitrophenol at 1000 uM by spectrometric analysis relative to control.
The species named for another assay is Rattus norvegicus. Kind of assay: Inhibition of rat intestinal Alpha-glucosidase using p-nitrophenyl glycoside as substrate assessed as p-nitrophenol release at 1000 uM by spectrometric analysis relative to control.
Assay [5] deals with T1, Alpha-mannosidase (Canavalia ensiformis) (UniProt C0HJB3).
T1 sequence (whole entry): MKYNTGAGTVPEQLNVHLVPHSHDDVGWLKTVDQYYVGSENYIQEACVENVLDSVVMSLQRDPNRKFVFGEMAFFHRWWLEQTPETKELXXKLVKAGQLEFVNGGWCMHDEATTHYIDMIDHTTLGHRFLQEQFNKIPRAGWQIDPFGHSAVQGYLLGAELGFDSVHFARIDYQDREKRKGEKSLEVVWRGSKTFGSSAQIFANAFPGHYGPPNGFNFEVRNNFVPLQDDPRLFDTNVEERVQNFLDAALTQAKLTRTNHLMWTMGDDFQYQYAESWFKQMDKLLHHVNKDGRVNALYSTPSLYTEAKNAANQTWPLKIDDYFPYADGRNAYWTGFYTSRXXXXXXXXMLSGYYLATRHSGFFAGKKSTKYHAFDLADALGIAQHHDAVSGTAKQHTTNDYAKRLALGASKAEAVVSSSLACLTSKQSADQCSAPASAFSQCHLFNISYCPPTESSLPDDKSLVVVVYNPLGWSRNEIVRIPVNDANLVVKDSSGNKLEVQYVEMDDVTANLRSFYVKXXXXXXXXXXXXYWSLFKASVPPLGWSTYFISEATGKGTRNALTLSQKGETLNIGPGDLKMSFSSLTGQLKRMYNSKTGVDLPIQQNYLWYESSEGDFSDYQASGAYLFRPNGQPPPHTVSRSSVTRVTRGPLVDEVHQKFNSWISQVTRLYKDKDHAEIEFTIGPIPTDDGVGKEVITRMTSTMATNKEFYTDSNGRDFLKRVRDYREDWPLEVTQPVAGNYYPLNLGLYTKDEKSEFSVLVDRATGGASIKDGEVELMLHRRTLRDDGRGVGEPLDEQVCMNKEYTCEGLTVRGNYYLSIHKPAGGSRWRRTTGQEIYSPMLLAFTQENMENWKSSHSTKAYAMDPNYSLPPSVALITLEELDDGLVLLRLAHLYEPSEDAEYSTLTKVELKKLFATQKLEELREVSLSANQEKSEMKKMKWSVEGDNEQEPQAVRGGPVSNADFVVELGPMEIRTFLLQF
Kind of assay: Inhibition of jack bean alpha-mannosidase using p-nitrophenyl glycoside as substrate assessed as release of p-nitrophenol at 1000 uM by spectrometric analysis relative to control.

A further assay has as its system 786-0. Kind of assay: Cytotoxicity activity against human 786-0 cells incubated for 48 hrs by CCK-8 assay. The settings on record: 786-0, 48 h. Type of assay: functional, cell-based. On the technique in general: Tetrazolium dyes change colour on reduction, which living cells bring about.
The species entered for another assay is Sus scrofa. Kind of assay: Inhibition of porcine kidney Alpha alpha-trehalase using p-nitrophenyl glycoside as substrate assessed as release of p-nitrophenol at 1000 uM by spectrometric analysis relative to control.
Another assay concerns Escherichia coli. Kind of assay: Inhibition of Escherichia coli beta-glucuronidase using p-nitrophenyl glycoside as substrate assessed as release of p-nitrophenol at 1000 uM by spectrometric analysis relative to control.
Assay [6] deals with Alpha-galactosidase (Coffea arabica) (UniProt Q42656). Kind of assay: Inhibition of coffee bean alpha-galactosidase using p-nitrophenyl glycoside as substrate assessed as release of p-nitrophenol at 1000 uM by spectrometric analysis relative to control.
Sequence of Alpha-galactosidase (Coffea arabica) (Q42656 16-378 limits assumed): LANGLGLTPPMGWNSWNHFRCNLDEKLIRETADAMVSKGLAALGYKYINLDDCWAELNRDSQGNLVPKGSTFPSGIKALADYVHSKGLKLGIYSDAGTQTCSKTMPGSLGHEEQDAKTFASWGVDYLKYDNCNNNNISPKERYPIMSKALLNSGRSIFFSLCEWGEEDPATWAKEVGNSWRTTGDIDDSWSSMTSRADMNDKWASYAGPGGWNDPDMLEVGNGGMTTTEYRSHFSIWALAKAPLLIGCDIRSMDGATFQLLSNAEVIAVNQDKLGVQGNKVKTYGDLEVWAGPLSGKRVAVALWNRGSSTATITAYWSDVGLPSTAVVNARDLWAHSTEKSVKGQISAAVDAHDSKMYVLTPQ
In the next assay the test system is Helix pomatia. Kind of assay: Inhibition of snail beta-mannosidase using p-nitrophenyl glycoside as substrate assessed as release of p-nitrophenol at 1000 uM by spectrometric analysis relative to control.
The target in assay [7] is Alpha-glucosidase (Saccharomyces cerevisiae S288c) (UniProt P53341+P38158+P07265). Kind of assay: Inhibition of yeast Alpha-glucosidase using p-nitrophenyl glycoside as substrate assessed as p-nitrophenol release at 1000 uM by spectrometric analysis relative to control. Type of assay: protein assay.
For another assay, the system named is HepG2. Kind of assay: Cytotoxicity activity against human HepG2 cells incubated for 48 hrs by CCK-8 assay. It counts as functional, cell-based. To be noted: HepG2, 48 h.
For the next assay, the system named is Prunus dulcis. Kind of assay: Inhibition of almond Beta-glucosidase using p-nitrophenyl glycoside as substrate assessed as release of p-nitrophenol at 1000 uM by spectrometric analysis relative to control.
Assay [8] has as its target Alpha glucosidase (Homo sapiens) (UniProt O43451+P10253+P14410+Q2M2H8). Kind of assay: Inhibition of human Alpha-glucosidase using p-nitrophenyl glycoside as substrate assessed as p-nitrophenol release at 1000 uM by spectrometric analysis relative to control. It counts as protein assay.
The species entered for assay [9] is Bos taurus. Kind of assay: Inhibition of bovine liver beta-glucuronidase using p-nitrophenyl glycoside as substrate assessed as release of p-nitrophenol at 1000 uM by spectrometric analysis relative to control.
The next assay relates to Penicillium decumbens. Kind of assay: Inhibition of Penicillium decumbens alpha-L-rhamnosidase using p-nitrophenyl glycoside as substrate assessed as release of p-nitrophenol at 1000 uM by spectrometric analysis relative to control.
The next assay concerns CAKI-1. Kind of assay: Cytotoxicity activity against human CAKI-1 cells incubated for 48 hrs by CCK-8 assay. To be noted: CAKI-1, 48 h. It counts as functional, cell-based.
The next assay has as its target T2, Alpha-mannosidase (Canavalia ensiformis, UniProt C0HJB3).
T2 sequence (C0HJB3 whole entry): T1 sequence (whole entry)
Kind of assay: Inhibition of jack bean Alpha-mannosidase using p-nitrophenyl glycoside as substrate.

The nature of assay [10]: Inhibition of human liver Alpha-mannosidase.

Calls of active or inactive are those of the source. The calls are words filed in the database; no cut-off is given here.

Broadly, the inhibition is the drop in the measured response relative to a control, in per cent. Take `CCCC[C@H]1CCN2C[C@@H](O)[C@@H](O)[C@H]2[C@@H]1O`: the inhibition result in the assay listed under Homo sapiens [1] was “inactive”.
What is called IC50 is the concentration at which inhibition is half-maximal. On to `O[C@H]1[C@H]2[C@H](O)C[C@H](F)CN2C[C@H]1O`, for which the inhibition stood at 0% in the assay listed under Bos taurus [2]; 2.6% in the assay filed under Bos taurus [3]; 6.4% in the assay with Aspergillus niger; 6% in the assay filed under Homo sapiens [4]; 19.1% in the assay listed under Rattus norvegicus; 0.78% in assay [5]. The inhibition in the assay filed under Sus scrofa was found to be 4.1%; in the assay with Escherichia coli, 11.3%; in [6], 0%; in the assay on Helix pomatia, 5%; in [7] it was 1.7%; in the assay on Prunus dulcis, 2.1%. For the same molecule, the inhibition in [8] is 6.6%; in the assay filed under Bos taurus [9] it was 6.8%; in the assay on Penicillium decumbens it was 14.4%. In addition, the IC50 with 786-0, with HepG2 and with CAKI-1 was more than 200 µM in each case.
Broadly, the Ki is the equilibrium dissociation constant of an inhibitor or competing ligand from its target. Regarding `NCC/N=C1/N[C@H](CO)[C@@H](O)[C@@H](O)[C@@H]1O`, the Ki stood at 0.006 µM on Alpha-mannosidase and 6 µM in assay [10].
Regarding `OC[C@H]1O[C@H](O[C@H]2[C@H]3[C@H](O)CCCN3C[C@H]2O)[C@H](O)[C@@H](O)[C@@H]1O`, the inhibition entry in the assay listed under Homo sapiens [1] was “inactive”.
